Literature values in patent publication US7780990B2, “Combination therapeutic compositions and method of use” (priority 2005, dated 2010).

Conditions: intravenous infusion 30 g over 30 min, patients with type II diabetes

Q: With `C[N+](C)(C)CC(=O)O` [betaine, glycine betaine] as the molecule, how does the blood pressure read?
A: Its blood pressure is “reduces blood pressure”.

Q: And the haemodynamic functions?
A: Its haemodynamic functions is “improves haemodynamic functions”.
